{"source": "ChEMBL document CHEMBL5226340", "about": "“Chemical Biology of Sortase A Inhibition: A Gateway to Anti-infective Therapeutic Agents” (J Med Chem, 2021)", "key": {"Staphylococcus aureus [1]": {"tested_on": "Staphylococcus aureus", "experiment": "Antibacterial activity against Staphylococcus aureus", "type": "functional"}, "Sortase A [2]": {"target": "T1, Sortase A (Staphylococcus aureus, UniProt Q9S446)", "T1 sequence (Q9S446 whole entry)": "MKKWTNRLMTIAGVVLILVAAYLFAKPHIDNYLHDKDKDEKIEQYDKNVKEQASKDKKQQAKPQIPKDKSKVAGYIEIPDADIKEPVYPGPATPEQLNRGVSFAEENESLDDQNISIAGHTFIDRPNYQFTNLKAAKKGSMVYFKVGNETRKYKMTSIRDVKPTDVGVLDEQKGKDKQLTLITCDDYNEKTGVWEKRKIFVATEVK", "experiment": "Inhibition of Staphylococcus aureus SrtA"}, "Sortase A [3]": {"target": "T1, Sortase A", "experiment": "Inhibition of Staphylococcus aureus SrtA with 24 residues truncated from N-terminus using Abz-LPATG-Dap as substrate"}, "Sortase A [4]": {"target": "T1, Sortase A", "experiment": "Inhibition of Staphylococcus aureus SrtA catalytic domain (60 to 206 residues) using Abz-LPETGDap(Dnp)-NH2 as substrate preincubated for 1 hr followed by substrate addition and measured immediately by FRET assay"}, "Sortase A [5]": {"target": "T1, Sortase A", "experiment": "Inhibition of Staphylococcus aureus SrtA using EDANS-Dabcyl as substrate by FRET assay"}, "Sortase A [6]": {"target": "T1, Sortase A", "experiment": "Inhibition of recombinant Staphylococcus aureus ATCC 6538p SrtA expressed in Escherichia coli TOP10 using Dabcyl-QALPETGEE-Edans as substrate incubated for 1 hr by fluorometric analysis"}, "Staphylococcus aureus [7]": {"tested_on": "Staphylococcus aureus", "experiment": "Antibacterial activity against Staphylococcus aureus ATCC 6538p assessed as inhibition of bacterial growth incubated overnight by spectrophotometer", "type": "functional"}, "[8]": {"target": "T2, Sortase A (Staphylococcus aureus) (UniProt Q9S446)", "T2 sequence (whole entry)": "T1 sequence (Q9S446 whole entry)", "experiment": "Binding affinity to Staphylococcus aureus SrtA assessed as kinact/ki"}, "Sortase A [9]": {"target": "T1, Sortase A", "experiment": "Inhibition of C-terminal 6His-tagged recombinant Staphylococcus aureus SrtA with 1 to 59 residues truncated from N-terminus expressed in Escherichia coli BL21 (DE3) using dabcyl-QALPETGEE-edans as substrate preincubated for 1 hr followed by substrate addition and measured for 1 hr by FRET assay"}, "Staphylococcus aureus [10]": {"tested_on": "Staphylococcus aureus", "experiment": "Inhibition of biofilm formation in Staphylococcus aureus ATCC 29213 incubated for 24 hrs by crystal violet staining based analysis", "type": "functional, organism-based", "settings": "ATCC 29213, 24 h"}, "Sortase A [11]": {"target": "T1, Sortase A", "experiment": "Inhibition of Staphylococcus aureus SrtA (60 to 206 residues) using Abz-LPETG-Dap(Dnp)-NH2 as substrate incubated for 1 hr by FRET assay"}, "Sortase A [12]": {"target": "T1, Sortase A", "experiment": "Inhibition of recombinant Staphylococcus aureus SrtA using DabcylQALPETGEE-Edans as substrate by FRET assay"}, "Staphylococcus aureus [13]": {"tested_on": "Staphylococcus aureus", "experiment": "Antibacterial activity against Staphylococcus aureus SA113 by microbroth dilution assay", "type": "functional"}, "Sortase A [14]": {"target": "T1, Sortase A", "experiment": "Inhibition of recombinant Staphylococcus aureus SrtA deltaN59 using Dabcyl-[…]-Edans as substrate preincubated for 20 mins followed by substrate addition and measured after 1 hr by fluorescence based analysis"}, "Sortase A [15]": {"target": "T1, Sortase A", "experiment": "Binding affinity to Staphylococcus aureus SrtA (60 to 206 residues) using Dabcyl-Gln-Ala-Leu-Pro-Glu-Thr-Gly-Glu-Glu-Edans as substrate incubated for 12 hrs by fluorescence based analysis"}, "[16]": {"target": "T2, Sortase A (Staphylococcus aureus)", "experiment": "Binding affinity to Staphylococcus aureus SrtA (60 to 206 residues) using Dabcyl-Gln-Ala-Leu-Pro-Glu-Thr-Gly-Glu-Glu-Edans as substrate assessed as first order rate constant of inactivation incubated for 12 hrs by fluorescence based analysis"}, "[17]": {"target": "T2, Sortase A (Staphylococcus aureus)", "experiment": "Binding affinity to Staphylococcus aureus SrtA (60 to 206 residues) using Dabcyl-Gln-Ala-Leu-Pro-Glu-Thr-Gly-Glu-Glu-Edans as substrate assessed as second order rate constant of inhibition, kinact/ki incubated for 12 hrs by fluorescence based analysis"}, "Sortase A [18]": {"target": "T1, Sortase A", "experiment": "Inhibition of Staphylococcus aureus USA 300 SrtA expressed in Escherichia coli BL21 (DE3) cells using Dabcyl-QALPETGEE-Edans as substrate incubated for 1 hr by FRET assay"}, "Sortase A [19]": {"target": "T1, Sortase A", "experiment": "Inhibition of recombinant Staphylococcus aureus SrtA using Abz-LPETG-Dap(Dnp) as substrate"}}, "note": "Where a name gives a salt, the structure may show the parent alone. Starred links: 1 amine or outer side, 2 acyl side, 3 side chain; linkers in the order of their positions; H or OH if unused. Non-standard residues stand in square brackets, D forms with d. Residues, ends and D or L forms follow the SMILES beside them. X1 = C[C@@H](N[*:1])P(=O)(O)CCC(=O)[*:2]", "data": [{"smiles": "COc1ccc(-c2cc(=O)c3c(O)cc(O)cc3o2)cc1", "note": "[ACACETIN]", "values": [{"measurement": "MIC", "setting": "Staphylococcus aureus [1]", "result": "> 3600", "unit": "µM"}, {"measurement": "IC50", "setting": "Sortase A [2]", "result": 128, "unit": "µM"}]}, {"smiles": "c1cc(-c2nnc3sc(-c4ccc5[nH]cnc5c4)nn23)ccn1", "values": [{"measurement": "IC50", "setting": "Sortase A [3]", "result": 17, "unit": "µM"}]}, {"smiles": "CCOc1c(SSc2cnn(-c3cccc(F)c3)c(=O)c2OCC)cnn(-c2cccc(F)c2)c1=O", "values": [{"measurement": "IC50", "setting": "Sortase A [4]", "result": 0.16, "unit": "µM"}]}, {"smiles": "COc1cc(/C=C/C(=O)CC(=O)/C=C/c2ccc(O)cc2)ccc1O", "values": [{"measurement": "IC50", "setting": "Sortase A [5]", "result": 70.3, "unit": "µM"}, {"measurement": "MIC", "setting": "Staphylococcus aureus [1]", "result": "> 543", "unit": "µM"}]}, {"smiles": "COc1cc2c(cc1O)OC(c1ccccc1)CC2=O", "note": "(stereo not given)", "values": [{"measurement": "IC50", "setting": "Sortase A [6]", "result": 96.1, "unit": "µM"}, {"measurement": "MIC", "setting": "Staphylococcus aureus [7]", "result": "> 4700", "unit": "µM"}]}, {"smiles": "CCSSc1ccccc1C(=O)NCC(=O)Nc1cccc(Oc2ccccc2)c1", "values": [{"measurement": "Ratio", "setting": "[8]", "result": "7.24 10^4/M/min"}]}, {"smiles": "CCOC(=O)/C(=N\\Nc1ccc(Cl)c(Cl)c1)C(=O)c1cc(C)nn1CC", "values": [{"measurement": "IC50", "setting": "Sortase A [9]", "result": "> 200", "unit": "µM"}, {"measurement": "IC50", "setting": "Staphylococcus aureus [10]", "result": 1.7, "unit": "µM"}]}, {"smiles": "O=C(O)COc1ccccc1C1Nc2cccc3cccc(c23)N1", "values": [{"measurement": "IC50", "setting": "Sortase A [11]", "result": 47.2, "unit": "µM"}]}, {"smiles": "COc1ccc2cc3[n+](cc2c1OC)CCc1cc2c(cc1-3)OCO2", "note": "[BERBERINE SULFATE]", "values": [{"measurement": "IC50", "setting": "Sortase A [12]", "result": 26.5, "unit": "µM"}]}, {"smiles": "O=C(O)/C=C/c1ccc(O)c(O)c1", "note": "[CAFFEIC ACID]", "values": [{"measurement": "MIC", "setting": "Staphylococcus aureus [1]", "result": "> 5750", "unit": "µM"}, {"measurement": "IC50", "setting": "Sortase A [2]", "result": 860, "unit": "µM"}]}, {"smiles": "O=c1c(O)c(-c2cc(O)c(O)c(O)c2)oc2cc(O)cc(O)c12", "note": "[MYRICETIN]", "values": [{"measurement": "IC50", "setting": "Sortase A [6]", "result": 44, "unit": "µM"}]}, {"smiles": "CCSSc1ccccc1C(=O)N[C@H](CC(=O)O)C(=O)Nc1cccc(Oc2ccccc2)c1", "values": [{"measurement": "Ratio", "setting": "[8]", "result": "8.21 10^4/M/min"}]}, {"smiles": "COc1ccc(C(Nc2ccccn2)c2oc(CO)cc(=O)c2O)cc1", "note": "(stereo not given)", "values": [{"measurement": "MIC", "setting": "Staphylococcus aureus [1]", "result": "> 1440", "unit": "µM"}, {"measurement": "Ratio", "setting": "[8]", "result": "1.8 10^3/M/min"}]}, {"smiles": "CCSSc1ccccc1C(=O)NCC(=O)NCC1CCCCC1", "values": [{"measurement": "Ratio", "setting": "[8]", "result": "7.13 10^4/M/min"}]}, {"smiles": "COc1ccc2c(c1OC)C(=O)O[C@@H]2[C@H]1c2cc3c(cc2CCN1C)OCO3", "note": "[HYDRASTINE]", "values": [{"measurement": "IC50", "setting": "Sortase A [12]", "result": "> 209", "unit": "µM"}]}, {"smiles": "O=c1cc(CO)oc(C(Nc2ccccn2)c2ccc(C(F)(F)F)cc2)c1O", "note": "(stereo not given)", "values": [{"measurement": "MIC", "setting": "Staphylococcus aureus [1]", "result": "> 1300", "unit": "µM"}, {"measurement": "Ratio", "setting": "[8]", "result": "1.7 10^3/M/min"}]}, {"smiles": "COc1ccc(-c2coc3cc(O)ccc3c2=O)cc1", "note": "[FORMONONETIN]", "values": [{"measurement": "IC50", "setting": "Sortase A [6]", "result": 74.9, "unit": "µM"}, {"measurement": "MIC", "setting": "Staphylococcus aureus [7]", "result": "> 478", "unit": "µM"}]}, {"smiles": "CSSc1ccccc1C(=O)NCC(=O)NC12CC3CC(CC(C3)C1)C2", "values": [{"measurement": "Ratio", "setting": "[8]", "result": "5.93 10^4/M/min"}, {"measurement": "MIC", "setting": "Staphylococcus aureus [13]", "result": 16, "unit": "µM"}]}, {"smiles": "COc1cc(/C=C/C(=O)CC(=O)/C=C/c2ccc(O)c(OC)c2)ccc1O", "note": "[CURCUMIN]", "values": [{"measurement": "MIC", "setting": "Staphylococcus aureus [1]", "result": "> 543", "unit": "µM"}]}, {"smiles": "CCSSc1ccccc1C(=O)NCC(=O)Nc1ccc(F)cc1", "values": [{"measurement": "Ratio", "setting": "[8]", "result": "6.14 10^4/M/min"}]}, {"smiles": "CC(C)C[C@H](N)C(=O)N1CCC[C@H]1C(=O)N[C@@H](CCCNC(=N)N)C(=O)N[C@@H](CC(=O)O)C(=O)N[C@@H](C)C(=O)O", "note": "(H-LPRDA-OH)", "values": [{"measurement": "IC50", "setting": "Sortase A [14]", "result": 10.6, "unit": "µM"}]}, {"smiles": "CCSSc1ccccc1C(=O)NCC(=O)N(C1CCCCC1)C1CCCCC1", "values": [{"measurement": "Ratio", "setting": "[8]", "result": "6.39 10^4/M/min"}]}, {"smiles": "CCOc1c(SSc2cnn(-c3cccc(C(=N)N)c3)c(=O)c2OCC)cnn(-c2cccc(C(=N)N)c2)c1=O", "values": [{"measurement": "IC50", "setting": "Sortase A [4]", "result": 0.54, "unit": "µM"}, {"measurement": "Ratio", "setting": "[8]", "result": "3.6 10^4/M/min"}]}, {"smiles": "Cc1cc(C(=O)/C(=N/Nc2c(F)cccc2F)C(=O)O)no1", "values": [{"measurement": "MIC", "setting": "Staphylococcus aureus [1]", "result": "> 200", "unit": "µM"}, {"measurement": "IC50", "setting": "Sortase A [9]", "result": 76.5, "unit": "µM"}, {"measurement": "IC50", "setting": "Staphylococcus aureus [10]", "result": 29, "unit": "µM"}]}, {"smiles": "CC(C)C[C@H](NC(=O)OCc1ccccc1)C(=O)N1CCC[C@H]1C(=O)N[C@@H](C)C(=O)N[C@@H](/C=C/S(=O)(=O)c1ccccc1)[C@@H](C)O", "values": [{"measurement": "Ki", "setting": "Sortase A [15]", "result": 9, "unit": "µM"}, {"measurement": "Kinact", "setting": "[16]", "result": "4 10^-4/min"}, {"measurement": "Kinact", "setting": "[17]", "result": 0.74, "unit": "M⁻¹ s⁻¹"}, {"measurement": "Ratio", "setting": "[17]", "result": 44.4, "unit": "M⁻¹ min⁻¹"}]}, {"smiles": "O=c1c(OCCCO)c(SSc2cnn(-c3cccc(F)c3)c(=O)c2OCCCO)cnn1-c1cccc(F)c1", "values": [{"measurement": "IC50", "setting": "Sortase A [4]", "result": 0.02, "unit": "µM"}, {"measurement": "Ratio", "setting": "[8]", "result": "1.8 10^4/M/min"}]}, {"smiles": "CCCC(=O)c1c(O)c(CC2=C(O)C(C)(C)C(=O)C(C(C)=O)=C2O)c(O)c(Cc2c(O)c(C(=O)CCC)c(O)c(C(C)C3=C(O)C(C)(C)C(=O)C(C(C)=O)=C3O)c2O)c1O", "note": "(stereo not given)", "values": [{"measurement": "IC50", "setting": "Sortase A [18]", "result": 24.2, "unit": "µM"}]}, {"smiles": "CC(C)C[C@H](NC(=O)[C@H](C)NC(=O)[C@@H](N)Cc1ccc(O)cc1)C(=O)N1CCC[C@H]1C(=O)N[C@@H](CCC(=O)O)C(=O)N[C@H](C)P(=O)(O)CCC(=O)N[C@@H](CCC(=O)O)C(=O)N[C@@H](CCC(=O)O)C(N)=O", "note": "(H-YALPE[X1]EE-NH2)", "values": [{"measurement": "IC50", "setting": "Sortase A [19]", "result": 10000, "unit": "µM"}]}, {"smiles": "O=[N+]([O-])c1ccc(C2Nc3cccc4cccc(c34)N2)cc1", "values": [{"measurement": "IC50", "setting": "Sortase A [11]", "result": 80, "unit": "µM"}]}]}
